Data taken from US20260021296A1, “ION[…]” (KANEKA CORPORATION, priority 2023, published 2026).

Test: Evaluation of skin permeability of drug by iontophoresis in a vertical Franz cell
Type: in vitro ADME, hairless rat (HWY/Slc)
Experimental: The excised abdominal skin of a depilated male hairless rat (HWY/Slc, SPF, 5 weeks old) was punched into a 3.2 cm diameter circle and set in a vertical Franz cell. To the donor chamber of the Franz cell, 1.5 mL of a 0.5 wt % lanreotide acetate solution was added as a drug 31, and a zinc plate (0.5 cm×2 cm×0.5 mm) was immersed therein to form an anode 21. PBS was used as a receptor solution in the receptor chamber, and a silver/silver chloride rod (11 cm in length, 1 mm q in diameter) was inserted from the sampling port to form a cathode 22. The zinc plate and the silver/silver chloride rod were connected to the same power supply 10 and control unit 50 as those used in the skin irritability evaluation described above.
Example 4: A pulse current with a frequency of […], a period of 100 ms, a duty ratio of 50%, a rectangular waveform, and a current density of 0.35 mA/cm^2 was applied.
Comparative Example 6: Instead of a pulse current, a current with a substantially constant current value and a current density of 0.35 mA/cm^2 was applied.
Comparative Example 7: No current was applied.
In order to match the total time of current application (total amount of applied current), the current was applied for 6 hours in Example 4 and for 3 hours in Comparative Example 6. Example 4 and Comparative Examples 6 to 7 were all conducted with n=3.
Three items were evaluated: the cumulative amount of drug permeated, the permeation rate, and the relationship between the cumulative permeation amount and the quantity of electricity.
The receptor solution was sampled every hour, the amount of drug permeated through the skin was quantified by high-performance liquid chromatography (HPLC), and the above three items were evaluated with time. In Comparative Example 6, even after the end of the current application, the sampling was continued until 6 hours elapsed from the start of the test, as in Example 4 and Comparative Example 7. The HPLC measurement conditions are shown below.

SMILES: CC(C)[C@@H]1NC(=O)[C@H](CCCCN)NC(=O)[C@@H](Cc2c[nH]c3ccccc23)NC(=O)[C@H](Cc2ccc(O)cc2)NC(=O)[C@@H](NC(=O)[C@H](N)Cc2ccc3ccccc3c2)CSSC[C@@H](C(=O)N[C@H](C(N)=O)[C@@H](C)O)NC1=O [lanreotide acetate]
- time from start of test at which permeation of the drug through the skin was observed (Comparative Example 6: substantially constant current 0.35 mA/cm^2, applied 3 hours, 0.5 wt % solution, n=3): about 2 hours
- drug skin permeability (rank among current conditions, FIGS. 8 and 9) (Comparative Example 7: no current applied): lowest
- time from start of test until which permeation of the drug through the skin was not observed (Comparative Example 7: no current applied, 0.5 wt % solution, n=3): ≥ 4 h
- drug skin permeability (rank among current conditions, FIGS. 8 and 9) (Example 4: pulse current 5 Hz, duty ratio 50%, 0.35 mA/cm^2): highest
- time from start of test at which permeation of the drug through the skin was observed (Example 4: pulse current 5 Hz, duty ratio 50%, rectangular waveform, 0.35 mA/cm^2, applied 6 hours, 0.5 wt % solution, n=3): about 2 hours
- cumulative permeation amount of Example 4 relative to Comparative Example 6 at the same quantity of electricity (final) (pulse current (Example 4) versus constant current (Comparative Example 6), 0.35 mA/cm^2, FIG. 10): ≥ 5 times
